Laboratory results reported in patent US20190040004A1, “NEW COMPOUNDS FOR THE TREATMENT AND/OR PREVENTION OF PARASITIC DISEASES AND METHOD OF PRODUCTION OF THEREOF” (INSTITUT DE RECHERCHE POUR LE DEVELOPPEMENT (I.R.D.), priority 2013, published 2019).
Entries after “also recorded” stand apart in the source; their conditions may differ. Like-named read-outs stand apart in the source and are kept apart here.

Columns and labels:
[1] = tested on: HDAC activity from HELA nuclear extract; assay: Fluorimetric HDAC assay, HeLa nuclear extract; format: biochemical, human; details: read-out: IC50 (better HDAC inhibitor among 9 tested compounds)
Method: (§1) HDAC inhibitory activity was determined by a fluorimetric HDAC assay kit (Active-motif, Belgium), according to manufacturer's instructions. […] Fluorogenic substrate (10 μL) was added, reaction was allowed to proceed for 30 min at room temperature, then stopped by the addition of a developer containing Tichostatin A.

[2] = tested on: T1, HDAC activity from HELA nuclear extract; assay: Fluorimetric HDAC assay, HeLa nuclear extract; format: biochemical, human
T1 construct: HELA Nuclear extracts IC50; other: HeLa nuclear extract, fluorimetric HDAC kit; […]
Method: as §1

[3] = tested on: Leishmania infantum luciferase expressing strain (MHOM/MA/ITMAP269); assay: microbe, parasite or virus in culture; format: cell-based; details: for IC50: Leishmania infantum, read-out: L. infantum IC50
Text: THP-1 is derived from the peripheral blood ofa human with acute monocytic leukemia.

[4] = tested on: T. gondii (GFP expressing parasites) in HFF; assay: T. gondii proliferation in human foreskin fibroblasts; format: cell-based, Toxoplasma gondii; details: for IC50: 24 h
Method: To assess the drug activity on toxoplasma proliferation, human foreskin fibroblasts (HFF) were infected with GFP expressing parasites for 30 mns (Striepen et al., Mol Biochem Parasitol. 1998, 92(2):325-38). Cells were then washed and drugs added at various concentrations ranging from 0.1 to 10 uM. After 24 h, cells were washed and fixed (PBS-formaldehyde 2%) and nucleus stained with Hoechst 33258 (2 μg/ml). The number of infected cells i.e cells harbouring a parasitophorous vacuole and the number of parasites per vacuole were determined using an Olympus ScanR microscope (Olympus).
(§2) Antiparasitic activity of a compound is represented by ICo50, which is calculated with Prism software (Prism4 for MacOSX Version 5.0b, December 2008). The cytoxicity of a compound against the host cells of L. infantum and T. gondii, such as THP-1 or HFF cells, was determined with a MTT assay, according to previously described protocol (Sereno et al., Antimicrob Agents Chemother. 2001, 45(4):1168-73). THP-1 is derived from the peripheral blood ofa human with acute monocytic leukemia.

HFF cells = assay: MTT cytotoxicity on HFF host cells; format: cell-based
Method: as §2

THP-1 cells = assay: MTT cytotoxicity on THP-1 host cells; format: cell-based
Method: as §2

[5] = tested on: T2, HDAC activity from HELA nuclear extract; assay: Fluorimetric HDAC assay, HeLa nuclear extract; format: biochemical, human; details: 600 nM; HELA nuclear extract and HDAC-recombinant proteins
T2 construct: other: 600 nM; HELA nuclear extract and HDAC-recombinant proteins
Method: as §1

recombinant HDAC1 = recombinant HDAC1 (Homo sapiens, UniProt Q13547); assay: Recombinant HDAC1 inhibition; format: biochemical
Method: FIG. 2 illustrates the capacity of the different compounds of 600 nM to inhibit HDAC activity from HELA nuclear extract and from HDAC-recombinant proteins (HDAC 1, HDAC 3, HDAC 6, HDAC 8).
HDAC inhibitory activity was determined by a fluorimetric HDAC assay kit (Active-motif, Belgium), according to manufacturer's instructions. Briefly, 30 μL of HeLa nuclear extract were mixed with 5 μL of 10× compound to be tested and 10 μL of assay buffer. Fluorogenic substrate (10 μL) was added, reaction was allowed to proceed for 30 min at room temperature, then stopped by the addition of a developer containing Tichostatin A. Fluorescence was monitored after 30 min at excitation and emission wavelengths of 360 and 460 nm, respectively. […].

recombinant HDAC3 = recombinant HDAC3 (Homo sapiens, UniProt O15379); assay: Recombinant HDAC3 inhibition; format: biochemical
recombinant HDAC6 = target: T3, recombinant HDAC6 (Homo sapiens, UniProt Q9UBN7); assay: Recombinant HDAC6 inhibition; format: biochemical
T3 sequence (Q9UBN7 1-1215): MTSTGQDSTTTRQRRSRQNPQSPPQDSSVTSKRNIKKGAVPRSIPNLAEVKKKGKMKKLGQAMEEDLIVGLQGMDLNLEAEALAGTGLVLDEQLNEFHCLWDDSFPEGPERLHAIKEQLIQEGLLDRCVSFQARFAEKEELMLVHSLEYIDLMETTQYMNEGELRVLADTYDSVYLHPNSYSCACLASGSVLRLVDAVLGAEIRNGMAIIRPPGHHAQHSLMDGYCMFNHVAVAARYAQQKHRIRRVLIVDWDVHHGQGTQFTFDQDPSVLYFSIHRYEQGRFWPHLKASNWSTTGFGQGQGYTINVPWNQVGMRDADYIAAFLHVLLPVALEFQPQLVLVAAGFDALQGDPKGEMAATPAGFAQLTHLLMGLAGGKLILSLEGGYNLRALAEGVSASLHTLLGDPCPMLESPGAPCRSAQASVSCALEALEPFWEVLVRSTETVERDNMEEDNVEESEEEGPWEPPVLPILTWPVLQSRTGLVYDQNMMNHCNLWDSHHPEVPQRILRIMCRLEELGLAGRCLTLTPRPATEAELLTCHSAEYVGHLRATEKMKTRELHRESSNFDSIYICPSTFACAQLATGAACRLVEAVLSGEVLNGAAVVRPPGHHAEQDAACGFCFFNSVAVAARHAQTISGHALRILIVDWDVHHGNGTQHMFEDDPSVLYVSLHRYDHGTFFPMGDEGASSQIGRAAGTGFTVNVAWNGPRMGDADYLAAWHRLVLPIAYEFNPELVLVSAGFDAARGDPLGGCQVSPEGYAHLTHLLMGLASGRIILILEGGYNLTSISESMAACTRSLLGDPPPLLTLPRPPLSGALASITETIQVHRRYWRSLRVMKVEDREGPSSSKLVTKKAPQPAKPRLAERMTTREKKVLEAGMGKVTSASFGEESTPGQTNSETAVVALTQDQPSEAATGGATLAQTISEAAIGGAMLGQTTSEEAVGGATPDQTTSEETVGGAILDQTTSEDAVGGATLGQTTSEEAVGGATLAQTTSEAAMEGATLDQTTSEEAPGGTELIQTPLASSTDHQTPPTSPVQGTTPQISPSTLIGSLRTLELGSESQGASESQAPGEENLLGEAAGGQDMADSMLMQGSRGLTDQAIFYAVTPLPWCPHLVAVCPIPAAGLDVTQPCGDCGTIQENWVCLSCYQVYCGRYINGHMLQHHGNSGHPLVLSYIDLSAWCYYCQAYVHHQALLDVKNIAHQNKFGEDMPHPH

recombinant HDAC 8 = target: T4, recombinant HDAC 8 (Homo sapiens, UniProt Q9BY41); assay: Recombinant HDAC8 inhibition; format: biochemical
T4 sequence (Q9BY41 1-377): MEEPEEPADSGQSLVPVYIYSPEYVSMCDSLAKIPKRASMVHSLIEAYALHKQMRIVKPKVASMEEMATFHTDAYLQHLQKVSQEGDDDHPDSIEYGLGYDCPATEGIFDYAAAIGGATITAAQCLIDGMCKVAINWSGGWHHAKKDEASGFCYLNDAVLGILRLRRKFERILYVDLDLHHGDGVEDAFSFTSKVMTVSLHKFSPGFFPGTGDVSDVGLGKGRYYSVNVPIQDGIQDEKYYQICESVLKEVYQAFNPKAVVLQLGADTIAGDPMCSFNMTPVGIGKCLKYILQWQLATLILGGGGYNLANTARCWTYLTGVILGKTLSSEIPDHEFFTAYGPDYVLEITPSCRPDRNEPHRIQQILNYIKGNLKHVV

[6] = tested on: deacetylase activity in total protein extracts of T. gondii; assay: Deacetylase activity in total protein extracts of T. gondii; format: biochemical; details: 125 nM
[7] = tested on: type II Prugniaud parasites; assay: Type II Prugniaud Toxoplasma proliferation in HFF; format: cell-based, Toxoplasma gondii; details: 0.025 to 0.8 uM, 24 h
Method: (§3) To compare the activity of compounds according to the invention to that of prior art on toxoplasma proliferation, human foreskin fibroblasts (HFF) were plated in 96-wells plate (10 000 cells per well). Twenty-four hours later, cells were infected with 40 000 parasites, either RH-YFP type I or type II Prugniaud parasites or tachyzoites (kindly provided by B. Striepen, Athens) for one hour. Cells were then washed and drugs (compound D16 of formula
(§4) (FIG. 4 and FIG. 5) or compound according to the invention (363) (FIG. 6) added at various concentrations ranging from 0.025 to 0.8 uM. After 24 h, cells were washed and fixed (PBS-formaldehyde 2%) and nucleus stained with Hoechst 33258 (2 μg/ml). The number of infected cells ie. cells harbouring a parasitophorous vacuole and the number of parasites per vacuole was determined using an Olympus ScanR microscope (Olympus).

Babesia = Babesia proliferation; format: cell-based
type I RH-YFP parasites = assay: RH-YFP type I Toxoplasma proliferation in HFF; format: cell-based, Toxoplasma gondii; details: 0.025 to 0.8 uM, 24 h
Method: as §3, §4

[8] = HeLa nuclear extract, fluorimetric HDAC kit, read-out: HELA Nuclear extracts IC50
[9] = Toxoplasma gondii, Fibroblast, HFF infected, read-out: T. gondi IC50
[10] = text summary of Table 1, less active compounds, read-out: HDAC inhibitory activity against HeLa cell nuclear extract
[11] = Toxoplasma gondii, Fibroblast, read-out: T. gondi IC50, HFF infected, 24 h

recombinant HDAC1, sequence (Q13547 whole entry): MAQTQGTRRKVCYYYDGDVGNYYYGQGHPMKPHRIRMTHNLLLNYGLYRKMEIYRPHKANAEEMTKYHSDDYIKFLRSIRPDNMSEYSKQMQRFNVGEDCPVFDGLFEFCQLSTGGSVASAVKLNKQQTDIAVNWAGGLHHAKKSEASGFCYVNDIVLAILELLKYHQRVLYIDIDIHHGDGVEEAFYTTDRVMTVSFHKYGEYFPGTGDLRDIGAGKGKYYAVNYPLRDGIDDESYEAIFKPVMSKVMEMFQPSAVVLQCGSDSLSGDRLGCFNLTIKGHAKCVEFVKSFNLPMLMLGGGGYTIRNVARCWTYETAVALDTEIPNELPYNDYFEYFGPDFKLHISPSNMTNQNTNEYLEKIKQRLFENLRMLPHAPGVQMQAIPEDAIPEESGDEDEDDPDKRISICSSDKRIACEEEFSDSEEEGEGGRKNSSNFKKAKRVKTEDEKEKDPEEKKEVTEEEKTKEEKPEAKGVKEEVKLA
recombinant HDAC3, sequence (O15379 whole entry): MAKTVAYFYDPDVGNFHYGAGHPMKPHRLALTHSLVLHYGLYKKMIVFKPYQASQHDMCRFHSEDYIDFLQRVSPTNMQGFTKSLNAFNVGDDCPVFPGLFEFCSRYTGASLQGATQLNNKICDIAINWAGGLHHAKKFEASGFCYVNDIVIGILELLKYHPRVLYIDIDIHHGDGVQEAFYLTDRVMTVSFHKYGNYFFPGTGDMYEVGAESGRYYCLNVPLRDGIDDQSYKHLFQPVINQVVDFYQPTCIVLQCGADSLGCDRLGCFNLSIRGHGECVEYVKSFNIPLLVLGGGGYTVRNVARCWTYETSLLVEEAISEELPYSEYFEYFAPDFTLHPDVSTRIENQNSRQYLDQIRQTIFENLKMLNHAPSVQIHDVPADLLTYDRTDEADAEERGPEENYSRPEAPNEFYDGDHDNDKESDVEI
recombinant HDAC3, sequence (Q9Y618 395-489 partner limits assumed): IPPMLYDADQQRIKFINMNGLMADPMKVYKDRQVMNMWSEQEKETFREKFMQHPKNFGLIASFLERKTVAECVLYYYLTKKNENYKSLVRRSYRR

Compound | IC50 [2, 8] [nM] | IC50 [4, 9] [µM] | IS Selectivity index LD50 (HFF)/IC50 T. gondii (HFF cells) | HFF LD50 (HFF cells; human) [µM] | IS Selectivity index LD50 (THP-1)/IC50 T. gondii (THP-1 cells) | THP-1 LD50 (THP-1 cells; human) | further results
O=C(NO)c1ccc(CNC(=O)c2cccc(F)c2)cc1 [Compound 345] | 866 | < 10 | 11.6 | 58.3 ± 1.2 | 0.3 | 1.7. +/− 0.5 μM | IC50 [1]: 1700 nM; anti-leishmanial activity, in words [3]: anti-leishmanial; anti-toxoplasma activity, in words [4]: anti-toxoplasma activity; IC50 ([4]; read-out: T. gondi IC50, HFF infected): 5 µM
O=C(NO)c1ccc(NC(=O)c2cccc(F)c2)cc1 [Compound 349] | 633 | > 50 |  | >400 |  | 264 ± 8.0 µM | 
O=C(NO)c1ccc(CNS(=O)(=O)c2cccc(F)c2)cc1 [Compound 350] | 8610 | 40 | 7.5 | 300.0 ± 50.0 | 10 | >400 µM | IC50 [2, 10]: ~1000 nM
O=C(NO)c1ccc(NS(=O)(=O)c2cccc(F)c2)cc1 [Compound 351] | 881 |  | 2.3 | 116.5 ± 35 | 1.53 |  | IC50 [4, 11]: 50 µM
Cc1nc(-c2ccc(C(=O)NCc3ccc(C(=O)NO)cc3)cc2)cs1 [Compound 360] | 399 |  | 4.5 | 22.6 ± 9.5 | 0.4 | 2.2 ± 0.5 µM | IC50 [1]: 2200 nM; IC50 ([3]; antiparasitic activity): > 60 µM
Cc1nc(-c2ccc(C(=O)Nc3ccc(C(=O)NO)cc3)cc2)cs1 [Compound 361] | 1820 |  | 1.5 | 25.0 ± 4.0 | 25 | >400 µM | IC50 [2, 10]: ~1000 nM; IC50 [3]: > 60 µM; IC50 [4, 11]: > 10 µM
COc1cccc(CC(=O)NCc2ccc(C(=O)NO)cc2)c1 [Compound 362] | 518 | 52.5 | >8 | >400 | 0.5 | 30.5 ± 3.0 µM | 
COc1cccc(CC(=O)Nc2ccc(C(=O)NO)cc2)c1 [Compound 363] | 85 |  | 300 | 105 ± 10.5 | 10.3 | 3.6 ± 0.5 µM | IC50 [1]: 3600 nM; inhibition of human HDAC activity (FIG. 2), in words [5]: most potent inhibitor; IC50 (recombinant HDAC1): 257 nM; IC50 (recombinant HDAC3): 160 nM; IC50 (recombinant HDAC6): 45 nM; IC50 (recombinant HDAC 8): 863 nM; inhibitory effect on deacetylase activity of T. gondii extracts, in words [6]: strong inhibitory effect; inhibition of T. gondii deacetylase activity ([6]; total protein extracts): 44%; inhibitory activity on type II Prugniaud parasites proliferation, in words [7]: potent inhibitory effect; also recorded: potent inhibitory activity; IC50 (Babesia): ~1000 nM
COc1ccccc1CNC(=O)c1ccc(C(=O)NO)cc1 [Compound D16, reference compound] | 7740 |  |  |  |  |  | IC50 (recombinant HDAC1; read-out: IC50 recombinant HDAC 1): > 10000 nM; IC50 (recombinant HDAC6): 198 nM; inhibitory activity on type I RH-YFP parasites proliferation, in words (type I RH-YFP parasites): lack of inhibitory effect; also recorded: no inhibitory activity; inhibitory activity on type II Prugniaud parasites proliferation, in words [7]: no inhibitory activity; inhibitory activity on type II Prugniaud parasites proliferation, in words ([7]; listed as Dl6): lack of inhibitory effect
O=C(CCCCCCC(=O)Nc1ccccc1)NO [SAHA, suberoylanilide hydroxamic acid, reference compound] |  |  |  |  |  |  | THP-1 LD50 (THP-1 cells; MTT cytotoxicity): >200 µM
O=C(NO)c1ccccc1 [ST3, hydroxybenzamide, reference compound] |  |  |  |  |  |  | IC50 [3]: 29.3 µM; IC50 [4, 11]: > 50 µM; HFF LD50 (HFF cells; MTT cytotoxicity): >400 µM
